22 compounds from patent US20100222396A1 (Novartis AG, priority 2009, published 2010) can be followed below.

In test [1] the target is T1, human orexin 1 receptor (hOx1R) (Homo sapiens, UniProt O43613).
T1 construct: expressed in transfected cells
T1 sequence (O43613 1-425): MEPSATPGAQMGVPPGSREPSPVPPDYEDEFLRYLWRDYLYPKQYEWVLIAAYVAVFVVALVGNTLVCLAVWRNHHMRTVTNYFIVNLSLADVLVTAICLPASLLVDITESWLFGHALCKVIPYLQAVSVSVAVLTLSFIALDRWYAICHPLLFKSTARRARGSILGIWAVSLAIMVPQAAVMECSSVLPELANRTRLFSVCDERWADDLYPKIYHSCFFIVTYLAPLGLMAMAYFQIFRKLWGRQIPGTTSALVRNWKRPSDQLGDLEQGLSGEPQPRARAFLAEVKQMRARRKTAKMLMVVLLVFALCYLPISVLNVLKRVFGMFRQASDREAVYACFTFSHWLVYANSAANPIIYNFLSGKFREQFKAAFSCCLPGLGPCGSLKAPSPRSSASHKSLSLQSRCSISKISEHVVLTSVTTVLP
The test can be described thus: Calcium accumulation in cells (FLIPR), antagonism of orexin A, hOx1R. The conditions noted are these: for inhibition at 10 µM: measured at a concentration of 10 μM of compound (cells marked ^a); for Kd: cells expressing human orexin 1 receptor, IC50 vs orexin A converted by Cheng and Prusoff correction. It is filed as cell-based. On the procedure:
(§1) Cells expressing human orexin 1 or human orexin 2 receptors, were seeded at 8,000 cells/well in 384 well black-walled clear bottom, poly-D-lysine coated plates. After 24 h, the medium was removed and cells were washed once with phosphate buffered saline and serum-deprived overnight in assay buffer (130 mM NaCl, 5.4 mM KCl, 1.8 mM CaCl2, 0.8 mM MgSO4, 0.9 mM NaH2PO4, 25 mM glucose, 20 mM HEPES, pH 7.4) containing bovine serum albumin (1% w/v).
(§2) On the day of the experiment, the cells seeded in black plates were treated with assay buffer containing the Ca^2+ sensitive fluorescent dye Fluo-4-AM (2 μM), and probenecid (0.1 mM). After 1 h plates were washed twice with, and resuspended in, assay buffer containing probenecid (0.1 mM) using a multi plate washer. The plates were placed into a FLIPR II (Fluorometric Imaging Plate Reader, Molecular Devices, Sunnyvale, Calif., USA) and baseline fluorescence (fluorescence light units, FLU) was measured (5 measurements, 2 S each; laser excitation 488 nm at 0.6-1 W, CCD camera exposure 0.4 s) before addition of buffer alone (basal) or containing test compounds (either compound of formula I alone, agonist alone or agonist in the presence of various concentrations of compounds of formula I). Fluorescence measurements were then continued every 1 S for 120 S followed by every 4 S for 240 S.
(§3) The measurements were typically made in two sequences:
(§4) Compounds of formula I were tested usually in a concentration range from 10^−9 M to 10^−5 M.
(§5) In the second round, performed one hour later (to allow for equilibration), Orexin A was tested either in the absence (calibration curves, Orexin A agonist controls) or in the presence of compounds of formula I to determine antagonism.

Test [2] deals with T2, human orexin 2 receptor (hOx2R) (Homo sapiens, UniProt O43614).
T2 construct: expressed in transfected cells
T2 sequence (O43614 1-444): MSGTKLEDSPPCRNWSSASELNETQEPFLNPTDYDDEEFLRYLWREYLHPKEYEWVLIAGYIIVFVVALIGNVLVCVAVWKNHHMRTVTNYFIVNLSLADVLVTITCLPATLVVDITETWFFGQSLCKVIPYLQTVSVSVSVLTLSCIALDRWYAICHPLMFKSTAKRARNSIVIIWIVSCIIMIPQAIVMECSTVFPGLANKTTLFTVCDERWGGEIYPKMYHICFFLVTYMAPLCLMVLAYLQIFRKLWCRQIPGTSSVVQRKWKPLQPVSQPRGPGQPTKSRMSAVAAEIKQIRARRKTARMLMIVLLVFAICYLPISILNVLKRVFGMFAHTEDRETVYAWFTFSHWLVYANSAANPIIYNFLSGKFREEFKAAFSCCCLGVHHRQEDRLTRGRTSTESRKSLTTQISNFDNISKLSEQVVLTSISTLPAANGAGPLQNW
The experiment in a line: Calcium accumulation in cells (FLIPR), antagonism of orexin A, hOx2R. It is filed as cell-based. The conditions noted are these: for inhibition at 10 µM: measured at a concentration of 10 μM of compound (cells marked ^a); for Kd: cells expressing human orexin 2 receptor, IC50 vs orexin A converted by Cheng and Prusoff correction. On the procedure: as §1, §2, §3, §4, §5

By inhibition is commonly meant the relative decrease from the control value, in per cent. For the compound `Cc1cccc(C)c1C(=O)N(C)[C@H](CCNC(=O)c1ccccn1)Cc1ccccc1` [Example 98, Pyridine-2-carboxylic acid {(8)-3-[(2,6-dimethyl-benzoyl)-methyl-amino]-4-phenyl-butyl}-amide], the inhibition at 10 µM was found to be 28% in test [1] and 24% in test [2].
Broadly, the Kd is the concentration at which binding is half-saturated. Consider `CN(C(=O)c1ccccc1)[C@H](CCNC(=O)c1ccc2c(c1)CCO2)Cc1ccccc1` [Example 94, 2,3-Dihydro-benzofuran-5-carboxylic acid [(S)-3-(benzoyl-methyl-amino)-4-phenyl-butyl]-amide], for which the inhibition at 10 µM in test [1] was 12%. Moreover, the Kd in test [2] is 0.565 µM.
On to `CN(C(=O)c1ccccc1)[C@H](CCNC(=O)c1ccccn1)C(C)(C)c1ccccc1` [Example 114, Pyridine-2-carboxylic acid [(R)-3-(benzoyl-methyl-amino)-4-methyl-4-phenyl-pentyl]-amide], for which the inhibition at 10 µM worked out at 34% in test [1] and 18% in test [2].
Consider `CN(C(=O)c1ccccc1)[C@H](CCNC(=O)c1nccn1C)Cc1ccccc1` [Example 92, 1-Methyl-1H-imidazole-2-carboxylic acid [(S)-3-(benzoyl-methyl-amino)-4-phenyl-butyl]-amide], for which, in test [1], the inhibition at 10 µM worked out at 2%. Further, in test [2], the Kd was determined as 0.921 µM.
`CN(C(=O)c1ccccc1)[C@H](CCNC(=O)c1ccccn1)[C@@H](O)c1ccccc1` [Example 115, Pyridine-2-carboxylic acid [(3R,4S)-3-(benzoyl-methyl-amino)-4-hydroxy-4-phenyl-butyl]-amide]: the figures for the inhibition at 10 µM in test [1] and in test [2] were 13% and 33%, respectively.
Regarding `COc1ccc(C(=O)N(C)[C@H](CCNC(=O)c2cccn2C)Cc2ccccc2)cc1OC` [Example 120, 1-Methyl-1H-pyrrole-2-carboxylic acid {(8)-3-[(3,4-dimethoxy-benzoyl)-methyl-amino]-4-phenyl-butyl}-amide], the Kd in test [1] stood at 0.182 µM; in test [2], 0.004 µM.
The like results for `CN(C(=O)c1ccc2ccn(C)c2c1)[C@H](CCNC(=O)c1ccccn1)Cc1ccccc1` [Example 85, 1-Methyl-1H-indole-6-carboxylic acid {(S)-1-benzyl-3-[(pyridine-2-carbonyl)-amino]-propyl}-methyl-amide] were, in that order, 0.237 µM and 0.394 µM.
The like results for `CN(C(=O)c1ccccc1)[C@@H](Cc1ccccc1)[C@H](O)CNC(=O)c1ccccn1` [Example 69, Pyridine-2-carboxylic acid [(2R,3S)-3-(benzoyl-methyl-amino)-2-hydroxy-4-phenyl-butyl]-amide] were, in that order, 3.52 µM and 1.66 µM.
Take `CN(C(=O)c1ccccc1Br)[C@H](CCNC(=O)c1ccccn1)Cc1ccccc1` [Example 100, Pyridine-2-carboxylic acid {(8)-3-[(2-bromo-benzoyl)-methyl-amino]-4-phenyl-butyl}-amide]: the Kd amounted to 1.08 µM in test [1] and 0.131 µM in test [2].
On to `CN(C(=O)c1ccccc1)[C@H](CCNC(=O)c1ccccn1)[C@@H](F)c1ccccc1` [Example 116, Pyridine-2-carboxylic acid [(3R,4S)-3-(benzoyl-methyl-amino)-4-fluoro-4-phenyl-butyl]-amide], for which the Kd in test [1] came to 1.55 µM. Further, the inhibition at 10 µM in test [2] amounted to 29%.
`CN(C(=O)c1ccccc1)[C@H](CCNC(=O)c1ccc2cccnc2c1)Cc1ccccc1` [Example 88, Quinoline-7-carboxylic acid [(S)-3-(benzoyl-methyl-amino)-4-phenyl-butyl]-amide]: the inhibition at 10 µM in test [1] was 19%. In addition, in test [2], the Kd was 3.09 µM.
Consider `COc1ccc(C(=O)N(C)[C@H](CCNC(=O)c2nc3ccccc3n2C)Cc2ccccc2)cc1` [Example 90, 1-Methyl-1H-benzoimidazole-2-carboxylic acid {(S)-3-[(4-methoxy-benzoyl)-methyl-amino]-4-phenyl-butyl}-amide], for which the results for the Kd in test [1] and in test [2] were 1.25 µM and 2.54 µM, respectively.
Turning to `CN(C(=O)c1ccc2c(c1)OC(C)(C)O2)[C@H](CCNC(=O)c1ccccn1)Cc1ccccc1` [Example 101, Pyridine-2-carboxylic acid {(S)-3-[(2,2-dimethyl-benzo[1,3]dioxole-5-carbonyl)-methyl-amino]-4-phenyl-butyl}-amide], the inhibition at 10 µM in test [1] was 13%. Moreover, the Kd in test [2] was 1.68 µM.
Taken in the same sequence, the figures for `CN(C(=O)c1ccccc1)[C@H](CCNC(=O)c1cccn1C)Cc1ccccc1` [Example 91, 1-Methyl-1H-pyrrole-2-carboxylic acid [(S)-3-(benzoyl-methyl-amino)-4-phenyl-butyl]-amide] were 16% and 0.375 µM.
The like results for `CN(C(=O)c1ccc2c(c1)OCO2)[C@@H](Cc1ccccc1)[C@H](O)CNC(=O)c1ccc2c(c1)OCO2` [Example 72, Benzo[1,3]dioxole-5-carboxylic acid {(2R,3S)-3-[(benzo[1,3]dioxole-5-carbonyl)-methyl-amino]-2-hydroxy-4-phenyl-butyl}-amide] were, in that order, 27% and 0.761 µM.
Consider `CC(=O)NCC[C@H](Cc1ccccc1)N(C)C(=O)c1ccc2c(c1)OCO2` [Example 109, Benzo[1,3]-dioxole-5-carboxylic acid ((S)-3-acetylamino-1-benzyl-propyl)-methyl-amide], for which the inhibition at 10 µM in test [1] came out at 39%. In test [2], the Kd came to 1.72 µM.
In the case of `CN(C(=O)c1ccccc1)[C@](C)(CCNC(=O)c1ccccn1)Cc1ccccc1` [Example 111, Pyridine-2-carboxylic acid [(S)-3-(benzoyl-methyl-amino)-3-methyl-4-phenyl-butyl]-amide], in test [1], the inhibition at 10 µM was 25%. In test [2], the Kd worked out at 0.562 µM.
The like results for `CN(C(=O)c1ccccc1)[C@H](CCNC(=O)c1ccccc1)Cc1ccccc1` [Example 15, N—[(S)-3-(Benzoyl-methyl-amino)-4-phenyl-butyl]-benzamide] were, in that order, 17% and 0.272 µM.
Take `CN(C(=O)c1ccccc1)[C@H](CCNC(=O)c1cc2ccccc2cn1)Cc1ccccc1` [Example 89, Isoquinoline-3-carboxylic acid [(S)-3-(benzoyl-methyl-amino)-4-phenyl-butyl]-amide]: the Kd in test [1] was 5.45 µM; in test [2] it was 2.55 µM.
Taken in the same sequence, the figures for `CN(C(=O)c1ccc2c(c1)OCO2)[C@H](CCNC(=O)c1nc2ccccc2o1)Cc1ccccc1` [Example 108, Benzooxazole-2-carboxylic acid {(S)-3-[(benzo[1,3]dioxole-5-carbonyl)-methyl-amino]-4-phenyl-butyl}-amide] were 3.99 µM and 0.542 µM.
As to `CN(C(=O)c1ccccc1)[C@H](CCNC(=O)c1cccnc1)Cc1ccccc1` [Example 86, N—[(S)-3-(Benzoyl-methyl-amino)-4-phenyl-butyl]-nicotinamide], the inhibition at 10 µM in test [1] came to 4%. The Kd in test [2] is 1.5 µM.
As to `CN(C(=O)c1ccccc1)[C@H](CCNC(=O)c1ccc2ccccc2n1)Cc1ccccc1` [Example 87, Quinoline-2-carboxylic acid [(S)-3-(benzoyl-methyl-amino)-4-phenyl-butyl]-amide], the results for the Kd in test [1] and in test [2] were 4.42 µM and 1.29 µM, respectively.
